According to PubChem BioAssay AID2335 (Sanford-Burnham Center for Chemical Genomics, 2010):
Calls of active or inactive are those of the source. How the calls were made is not given here.

Tested on: HEK293 cytotoxicity, cell viability
Test: HEK293 cell viability reduction – revised, SAR follow-up (AID 2335)

Cn1nccc1C(=O)NC1CCCc2c1cnn2-c1ccccc1F (stereo unspecified)
IC50: > 20 µM (inactive)
